molecular target: human GluN1/GluN2B NMDA receptors (Homo sapiens, UniProt Q05586+Q13224); assay: Cell-based calcium flux (FLIPR) assay on cloned human NR1/NR2B ion channels expressed in mammalian cells; settings: standard assay; glutamate at ~EC80; FLIPR calcium flux
In short: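 Calcium influx followed by FLIPR fluorescence after 5 min compound exposure and a further 5 min co-agonist challenge: 10 μM glycine with glutamate at ~EC80 (standard) or EC40 (HTS).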

human GluN1/GluN2B NMDA receptors, sequence (Q13224 27-1484, other chains not shown): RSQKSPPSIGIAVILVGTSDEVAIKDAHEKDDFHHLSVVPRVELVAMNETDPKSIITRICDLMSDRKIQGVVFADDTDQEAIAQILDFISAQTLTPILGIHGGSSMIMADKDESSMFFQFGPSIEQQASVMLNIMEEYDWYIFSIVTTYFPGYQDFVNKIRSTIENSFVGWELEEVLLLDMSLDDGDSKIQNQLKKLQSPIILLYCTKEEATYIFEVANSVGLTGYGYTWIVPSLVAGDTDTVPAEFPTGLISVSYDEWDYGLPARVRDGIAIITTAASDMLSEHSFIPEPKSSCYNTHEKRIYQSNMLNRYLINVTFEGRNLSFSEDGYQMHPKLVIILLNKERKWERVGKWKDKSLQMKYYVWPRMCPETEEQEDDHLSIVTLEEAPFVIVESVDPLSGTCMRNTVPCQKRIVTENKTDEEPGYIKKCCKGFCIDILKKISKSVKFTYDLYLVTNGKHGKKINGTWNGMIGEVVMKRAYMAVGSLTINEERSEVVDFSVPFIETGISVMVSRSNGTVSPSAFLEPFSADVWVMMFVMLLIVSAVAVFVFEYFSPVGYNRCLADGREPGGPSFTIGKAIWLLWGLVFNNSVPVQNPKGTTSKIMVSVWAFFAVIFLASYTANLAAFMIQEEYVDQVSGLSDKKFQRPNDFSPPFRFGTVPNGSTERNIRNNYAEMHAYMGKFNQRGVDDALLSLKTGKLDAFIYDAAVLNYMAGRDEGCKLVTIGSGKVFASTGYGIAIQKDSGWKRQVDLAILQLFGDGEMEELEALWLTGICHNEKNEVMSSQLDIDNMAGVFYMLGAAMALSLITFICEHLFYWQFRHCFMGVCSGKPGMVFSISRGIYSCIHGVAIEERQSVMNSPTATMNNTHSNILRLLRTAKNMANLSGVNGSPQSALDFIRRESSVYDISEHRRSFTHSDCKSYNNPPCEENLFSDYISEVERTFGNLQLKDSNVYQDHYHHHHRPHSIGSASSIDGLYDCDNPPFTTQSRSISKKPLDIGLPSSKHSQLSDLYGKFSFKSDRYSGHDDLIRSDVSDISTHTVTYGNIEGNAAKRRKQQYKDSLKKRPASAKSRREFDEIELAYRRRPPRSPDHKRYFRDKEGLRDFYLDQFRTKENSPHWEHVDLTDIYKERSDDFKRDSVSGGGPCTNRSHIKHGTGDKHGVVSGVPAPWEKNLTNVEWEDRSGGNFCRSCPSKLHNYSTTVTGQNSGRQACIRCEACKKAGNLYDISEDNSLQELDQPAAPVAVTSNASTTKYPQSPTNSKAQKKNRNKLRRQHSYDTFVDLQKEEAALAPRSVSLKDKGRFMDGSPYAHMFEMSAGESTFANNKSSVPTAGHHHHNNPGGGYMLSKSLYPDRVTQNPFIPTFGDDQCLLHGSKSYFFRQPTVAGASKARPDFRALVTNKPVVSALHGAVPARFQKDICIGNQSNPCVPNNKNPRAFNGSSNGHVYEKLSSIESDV

SMILES | IC50
CC(F)(F)c1cc(-n2cc(COc3nccc(N4CCCC4)n3)nn2)ccc1F [Example 591, 2-[[1-[3-(1,1-Difluoroethyl)-4-fluoro-phenyl]triazol-4-yl]methoxy]-4-pyrrolidin-1-yl-pyrimidine] | 0.016 µM
CN(C)c1ccnc(OCc2cn(-c3ccc(F)c(C(F)F)c3)nn2)n1 [Example 415, 2-[[1-[3-(Difluoromethyl)-4-fluoro-phenyl]triazol-4-yl]methoxy]-N,N-dimethyl-pyrimidin-4-amine] | 0.008 µM
CNc1nc(OCc2cn(-c3ccc(F)c(C(C)(F)F)c3)nn2)ncc1C [Example 577, 2-[[1-[3-(1,1-Difluoroethyl)-4-fluoro-phenyl]triazol-4-yl]methoxy]-N,5-dimethyl-pyrimidin-4-amine] | 0.128 µM

same assay, conditions: standard assay; human GluN1/GluN2B, calcium flux (FLIPR), glutamate ~EC80

SMILES | IC50
Fc1ccc(-n2cc(COc3nccc(N4CCCCC4)n3)nn2)cc1OC(F)F [Example 169, 2-[[1-[3-(Difluoromethoxy)-4-fluoro-phenyl]triazol-4-yl]methoxy]-4-(1-piperidyl)pyrimidine] | 0.031 µM
Cc1cnc(OCc2cn(-c3ccc(Cl)c(OC(F)F)c3)nn2)nc1 [Example 22, 2-[[1-[4-Chloro-3-(difluoromethoxy)phenyl]triazol-4-yl]methoxy]-5-methyl-pyrimidine] | 0.002 µM
Fc1ccc(-n2cc(COc3ncc(Cl)cn3)nn2)cc1OC(F)F [Example 61, 5-Chloro-2-[[1-[3-(difluoromethoxy)-4-fluoro-phenyl]triazol-4-yl]methoxy]pyrimidine] | 0.003 µM
CC(C)(O)c1cnc(OCc2cn(-c3cccc(OC(F)(F)F)c3)nn2)nc1 [Example 345, 2-[2-[[1-[3-(Trifluoromethoxy)phenyl]triazol-4-yl]methoxy]pyrimidin-5-yl]propan-2-ol] | 0.284 µM
FC(F)c1cccc(-n2cc(COc3ncc(C4CC4)cn3)nn2)c1 [Example 282, 5-Cyclopropyl-2-[[1-[3-(difluoromethyl)phenyl]triazol-4-yl]methoxy]pyrimidine] | 0.011 µM
Cn1ccc(-c2cnc(OCc3cn(-c4ccc(F)c(C(C)(F)F)c4)nn3)nc2)n1 [Example 184, 2-[[1-[3-(1,1-Difluoroethyl)-4-fluoro-phenyl]triazol-4-yl]methoxy]-5-(1-methylpyrazol-3-yl)pyrimidine] | 0.309 µM
CC(O)c1cnc(OCc2cn(-c3ccc(F)c(C(F)F)c3)nn2)nc1 (racemic) [Example 157, (R/S)-1-[2-[[1-[3-(Difluoromethyl)-4-fluoro-phenyl]triazol-4-yl]methoxy]pyrimidin-5-yl]ethanol] | 0.018 µM
CNc1nc(OCc2cn(-c3ccc(Cl)c(OC(F)F)c3)nn2)ncc1F [Example 389, 2-[[1-[4-Chloro-3-(difluoromethoxy)phenyl]triazol-4-yl]methoxy]-5-fluoro-N-methyl-pyrimidin-4-amine] | 0.033 µM
CC(F)(F)c1cccc(-n2cc(COc3ncc(N4CCC4)cn3)nn2)c1 [Example 320, 5-(Azetidin-1-yl)-2-[[1-[3-(1,1-difluoroethyl)phenyl]triazol-4-yl]methoxy]pyrimidine] | 0.061 µM
Fc1ccc(-n2cc(COc3ccc(Cl)cn3)nn2)cc1OC(F)F [Example 117, 5-Chloro-2-[[1-[3-(difluoromethoxy)-4-fluoro-phenyl]triazol-4-yl]methoxy]pyridine] | 0.073 µM
Fc1ccc(-n2cc(COc3ccc(C(F)(F)F)cn3)nn2)cc1OC(F)F [Example 119, 2-[[1-[3-(Difluoromethoxy)-4-fluoro-phenyl]triazol-4-yl]methoxy]-5-(trifluoromethyl)pyridine] | 0.114 µM
FC(F)c1cccc(-n2cc(COc3ncc(Cl)cn3)nn2)c1 [Example 92, 5-Chloro-2-[[1-[3-(difluoromethyl)phenyl]triazol-4-yl]methoxy]pyrimidine] | 0.019 µM
Fc1ccc(-n2cc(COc3ncc(Cl)cn3)nn2)cc1 [Example 164, 5-Chloro-2-[[1-(4-fluorophenyl)triazol-4-yl]methoxy]pyrimidine] | 0.371 µM
Cc1cccc(OCc2cn(-c3ccc(F)c(C(F)F)c3)nn2)n1 [Example 113, 2-[[1-[3-(Difluoromethyl)-4-fluoro-phenyl]triazol-4-yl]methoxy]-6-methyl-pyridine] | 0.038 µM

Reference: patent US10233173B2, “Substituted 1,2,3-triazoles as NR2B-selective NMDA modulators” (JANSSEN PHARMACEUTICA NV, priority 2016, dated 2019)
